Laboratory results as given in patent publication US8293278B2, “Compositions and methods for inhibiting reproduction in tadpole shrimp” (Fresno California State University, priority 2008, dated 2012).

Legend:
tadpole shrimp [1] = experiment: Inhibition of sexual development in tadpole shrimp in laboratory conditions; format: in vivo, Triops longicaudatus
From the text: As above, the dry base, the viscous additive, and the saline solution form the means for delivering the methyl farnesoate. In some embodiments, the composition may include a preparation comprising an effective amount of methyl farnesoate. In some embodiments, the composition can include a minimum of about 0.0001% methyl farnesoate by weight. In some embodiments, the composition can include a maximum of about 0.001% methyl farnesoate by weight. It has been determined that a concentration of as little as about 0.75 micrograms of methyl farnesoate per gram of the final composition is effective for inhibiting sexual development in tadpole shrimp in laboratory conditions. […] Thus, in some embodiments, compositions containing at least about […] micrograms of methyl farnesoate per gram of the final composition may be used to reduce sexual development in tadpole shrimp. However, it is to be appreciated that the percentage of methyl farnesoate by weight may be greater or less than these amounts in accordance with some embodiments of the present invention.

[2] = Chemical stability of methyl farnesoate (oxidation, heat during drying); format: physicochemical; conditions: exposure to temperatures above about 50 degrees Celsius during drying
From the text: Recent scientific studies have shown that the hormone methyl farnesoate [methyl-(2E,6E,10E)-3,7,11-trimethyldodecatri-2,6,10-eneoate] […] Because methyl farnesoate oxidizes quickly and therefore will not build up large concentrations in the soil, and because it is a fatty acid, it is not considered to be harmful to the environment or adversely affect crop production. However, it is for these same reasons that administration of methyl farnesoate is difficult to administer.
In some further embodiments, the particles once formed can be dried to have a moisture content of, for example, about 5% and about 18%. Drying the particles assist in the efficient packaging, distribution, and dispensing of the particles. During such drying, the particles should not be exposed to extreme heat, which could reduce methyl farnesoate concentrations. […] Thus, in some embodiments, the pellets may be dried at a temperature below about 50 degrees Celsius. In some embodiments, relatively lower temperature drying can be enhanced by circulating ambient air over the particles.

tadpole shrimp [3] = conditions: cited from earlier work
[4] = exposed to oxidizing agents in the environment; cited from earlier work

loss of methyl farnesoate concentration from the pellets on heating [2]: significant loss
Compound: COC(=O)/C=C(\C)CC/C=C(\C)CCC=C(C)C [methyl farnesoate, methyl-(2E,6E,10E)-3,7,11-trimethyldodecatri-2,6,10-eneoate]
concentration of methyl farnesoate effective for inhibiting sexual development in tadpole shrimp (tadpole shrimp [1]): about 0.75 micrograms of methyl farnesoate per gram of the final composition
effect on growth, development and gamete production in pests such as tadpole shrimp (tadpole shrimp [3]; recent scientific studies): inhibits growth, development, and gamete production
effect on sexual development of tadpole shrimp (tadpole shrimp [3]; studies): reduces sexual development
oxidative stability [4]: easily oxidized into farnesoic acid
